Assay results: ChEMBL document CHEMBL5614376, “Discovery of MT-1207: A Novel, Potent Multitarget Inhibitor as a Promising Clinical Candidate for the Treatment of Hypertension” (J Med Chem, 2024)
Calls of active or inactive are those of the source. No cut-off for these calls is given here.

Legend:
[1] = Plasma protein binding in Beagle dog at 1 uM incubated for 30 mins; format: ADME, cell-free, Canis lupus familiaris; settings: read-out: PPB (converted)
[2] = Plasma protein binding in Cynomolgus monkey at 0.1 uM incubated for 30 mins; format: ADME, cell-free, Macaca fascicularis; settings: read-out: PPB (converted)
[3] = Plasma protein binding in Cynomolgus monkey at 1 uM incubated for 30 mins; format: ADME, cell-free, Macaca fascicularis; settings: read-out: PPB (converted)
[4] = Metabolic stability in rat plasma assessed as enzymatic hydrolysis at 50 to 10000 ng/ml incubated upto 120 mins; format: ADME, cell-free; settings: 2 h, dose 50-10000 ng/ml
[5] = Metabolic stability in human liver microsomes assessed as drug metabolism at 10 umol/L incubated upto 120 mins in presence of NADPH by LC-MS/MS analysis; format: ADME, Microsome; settings: 2 h, 10 µM, dose 10 µmol/L
[6] = Metabolic stability in rat liver microsomes assessed as drug metabolism at 10 umol/L incubated upto 120 mins in presence of NADPH by LC-MS/MS analysis; format: ADME, Microsome; settings: 2 h, 10 µM, dose 10 µmol/L
[7] = Metabolic stability in human liver microsomes assessed as compound remaining at 10 umol/L incubated upto 120 mins in presence of NADPH by LC-MS/MS analysis; format: ADME, Microsome; settings: dose 10 µmol/L, read-out: Stability
[8] = Metabolic stability in Beagle dog liver microsomes assessed as compound remaining at 10 umol/L incubated upto 120 mins in presence of NADPH by LC-MS/MS analysis; format: ADME, Canis lupus familiaris, Microsome; settings: dose 10 µmol/L, read-out: Stability
[9] = Half life in Sprague-Dawley rat at 1 mg/kg, po measured for 24 hrs by UPLC/MS/MS analysis; format: ADME, organism-based; settings: in vivo
[10] = AUC (0 to t) in Sprague-Dawley rat at 1 mg/kg, po measured for 24 hrs by UPLC/MS/MS analysis; format: ADME, organism-based; settings: in vivo
[11] = AUC (0 to t) in Sprague-Dawley rat at 3 mg/kg, po measured for 24 hrs by UPLC/MS/MS analysis; format: ADME, organism-based; settings: in vivo
[12] = Apparent oral clearance in Sprague-Dawley rat at 3 mg/kg, po measured for 24 hrs by UPLC/MS/MS analysis; format: ADME, organism-based; settings: in vivo
[13] = Tmax in Sprague-Dawley rat at 9 mg/kg, po measured for 24 hrs by UPLC/MS/MS analysis; format: ADME, organism-based; settings: in vivo
[14] = AUC (0 to t) in Sprague-Dawley rat at 9 mg/kg, po measured for 24 hrs by UPLC/MS/MS analysis; format: ADME, organism-based; settings: in vivo
[15] = Oral bioavailability in Sprague-Dawley rat at 9 mg/kg measured for 24 hrs by UPLC/MS/MS analysis; format: ADME, organism-based; settings: in vivo
Rattus norvegicus [16] = test: Effect on heart rate in 2K2C renovascular hypertensive Sprague-Dawley rat model at 10 mg/kg, po measured after 9 weeks; format: functional, organism-based
Rattus norvegicus [17] = test: Effect on serum creatinine level in 2K2C renovascular hypertensive Sprague-Dawley rat model at 10 mg/kg, po measured after 9 weeks by biochemical analysis; format: functional, organism-based
Rattus norvegicus [18] = test: Effect on postural hypotension in Sprague-Dawley rat assessed as change in systolic blood pressure at 10 mg/kg, po treated for >30 mins followed by induction of postural hypotension measured 3 secs after postural change (reference value: 124 +/- 10 mmHg); format: functional; settings: time > 30.05 min, 0.5008 h
Rattus norvegicus [19] = test: Effect on postural hypotension in Sprague-Dawley rat assessed as change in systolic blood pressure at 5 mg/kg, po treated for >30 mins followed by induction of postural hypotension measured 5 secs after postural change (reference value: 126 +/- 12 mmHg); format: functional; settings: time > 30.08 min, 0.5013 h
Rattus norvegicus [20] = test: Effect on postural hypotension in Sprague-Dawley rat assessed as change in systolic blood pressure at 2.5 mg/kg, po treated for >30 mins followed by induction of postural hypotension measured 10 secs after postural change (reference value: 127 +/- 12 mmHg); format: functional; settings: time > 30.17 min, 0.5028 h
Rattus norvegicus [21] = test: Effect on postural hypotension in Sprague-Dawley rat assessed as change in systolic blood pressure at 5 mg/kg, po treated for >30 mins followed by induction of postural hypotension measured 10 secs after postural change (reference value: 127 +/- 12 mmHg); format: functional; settings: time > 30.17 min, 0.5028 h
Rattus norvegicus [22] = test: Effect on postural hypotension in Sprague-Dawley rat assessed as change in systolic blood pressure at 2.5 mg/kg, po treated for >30 mins followed by induction of postural hypotension measured 20 secs after postural change (reference value: 129 +/- 11 mmHg); format: functional; settings: time > 30.33 min, 0.5055 h
Rattus norvegicus [23] = test: Effect on postural hypotension in Sprague-Dawley rat assessed as change in systolic blood pressure at 2.5 mg/kg, po treated for >30 mins followed by induction of postural hypotension measured 60 secs after postural change (reference value: 127 +/- 10 mmHg); format: functional; settings: time > 31 min
[24] = Acute toxicity in Sprague-Dawley rat assessed as change in body weight at 250 to 1000 mg/kg, po single administration measured for 14 days; format: organism-based; settings: in vivo, 336 h, dose 250-1000 mg/kg, time 14 day
[25] = Acute toxicity in Sprague-Dawley rat assessed as drug tolerance at 250 to 1000 mg/kg, po single administration measured for 14 days; format: organism-based; settings: in vivo, 336 h, dose 250-1000 mg/kg, time 14 day
[26] = Toxicity in male Sprague-Dawley rat assessed as change in body weight at 30 mg/kg, po qd treated for 13 weeks consecutively measured post-cessation of treatment; format: organism-based; settings: in vivo, 2184 h
[27] = Toxicity in female Sprague-Dawley rat assessed as reduction in body weight at 100 mg/kg, po qd treated for 4 days consecutively; format: organism-based; parameters: scale not given: the % may be the effect or the level left; settings: in vivo, 96 h, time 4 day
[28] = Tmax in male Sprague-Dawley rat at 30 mg/kg, po measured on day 1 by UP/LC/MS/MS analysis; format: ADME, organism-based; settings: in vivo, time 1 day
[29] = Cmax in female Sprague-Dawley rat at 30 mg/kg, po measured on day 1 by UP/LC/MS/MS analysis; format: ADME, organism-based; settings: in vivo, time 1 day
[30] = Tmax in male Sprague-Dawley rat at 100 mg/kg, po qd treated for 13 weeks consecutively measured after recovery period on day 91 by UP/LC/MS/MS analysis; format: ADME, organism-based; settings: in vivo, time 91 day
[31] = Tmax in female Sprague-Dawley rat at 100 mg/kg, po qd treated for 13 weeks consecutively measured after recovery period on day 91 by UP/LC/MS/MS analysis; format: ADME, organism-based; settings: in vivo, time 91 day
[32] = Cmax in male Sprague-Dawley rat at 10 mg/kg, po qd treated for 13 weeks consecutively measured after recovery period on day 91 by UP/LC/MS/MS analysis; format: ADME, organism-based; settings: in vivo, time 91 day
[33] = Cmax in male Sprague-Dawley rat at 30 mg/kg, po qd treated for 13 weeks consecutively measured after recovery period on day 91 by UP/LC/MS/MS analysis; format: ADME, organism-based; settings: in vivo, time 91 day
[34] = Cmax in female Sprague-Dawley rat at 30 mg/kg, po qd treated for 13 weeks consecutively measured after recovery period on day 91 by UP/LC/MS/MS analysis; format: ADME, organism-based; settings: in vivo, time 91 day
[35] = AUC (0 to t) in female Sprague-Dawley rat at 10 mg/kg, po qd treated for 13 weeks consecutively measured after recovery period on day 91 by UP/LC/MS/MS analysis; format: ADME, organism-based; settings: in vivo, time 91 day
[36] = AUC (0 to t) in female Sprague-Dawley rat at 30 mg/kg, po qd treated for 13 weeks consecutively measured after recovery period on day 91 by UP/LC/MS/MS analysis; format: ADME, organism-based; settings: in vivo, time 91 day

Structure (SMILES): Cl.c1ccc2c(c1)nnn2CCCCN1CCN(c2nsc3ccccc23)CC1
- fraction unbound at 0.5 h, 1 µM [1]: 0.006
- fraction unbound at 0.5 h, 0.1 µM [2]: 0.015
- fraction unbound at 0.5 h, 1 µM [3]: 0.006
- Stability [4]: Stable
- Drug metabolism [5]: Metabolite_Detected
- Drug metabolism [6]: Metabolite_Detected
- remaining at 2 h, 10 µM [7]: 23.9%
- remaining at 2 h, 10 µM [8]: 6.04%
- half-life [9]: 1.5 h
- AUC(0-t) at 24 h [10]: 0.0517 µg·h/mL
- AUC(0-t) at 24 h [11]: 0.421 µg·h/mL
- CL/F [12]: 130 mL/min
- Tmax [13]: 0.65 h
- AUC(0-t) at 24 h [14]: 0.605 µg·h/mL
- bioavailability [15]: 15.3%
- Activity (Rattus norvegicus [16]): Active
- Activity (Rattus norvegicus [17]): Active
- Activity (Rattus norvegicus [18]): 81 mmHg
- Activity (Rattus norvegicus [19]): 79 mmHg
- Activity (Rattus norvegicus [20]): 89 mmHg
- Activity (Rattus norvegicus [21]): 82 mmHg
- Activity (Rattus norvegicus [22]): 91 mmHg
- Activity (Rattus norvegicus [23]): 93 mmHg
- Activity [24]: Non-Toxic
- Activity [25]: Non-Toxic
- Activity [26]: Non-Toxic
- Activity [27]: ~ 3.3%
- Tmax [28]: 1 h
- Cmax [29]: 0.408 µg/mL
- Tmax [30]: 1.3 h
- Tmax [31]: 2.5 h
- Cmax [32]: 0.0362 µg/mL
- Cmax [33]: 0.238 µg/mL
- Cmax [34]: 0.333 µg/mL
- AUC(0-t) at 2184 h [35]: 0.439 µg·h/mL
- AUC(0-t) at 2184 h [36]: 1.47 µg·h/mL
